Molecular target: T1, CYP76AK6 (Salvia pomifera, UniProt A0A0S1TPC7)
T1 construct: expressed in S. cerevisiae (pESC-Trp) with CYP76AH24 variant and Populus trichocarpa CPR2
T1 sequence (A0A0S1TPC7 1-500): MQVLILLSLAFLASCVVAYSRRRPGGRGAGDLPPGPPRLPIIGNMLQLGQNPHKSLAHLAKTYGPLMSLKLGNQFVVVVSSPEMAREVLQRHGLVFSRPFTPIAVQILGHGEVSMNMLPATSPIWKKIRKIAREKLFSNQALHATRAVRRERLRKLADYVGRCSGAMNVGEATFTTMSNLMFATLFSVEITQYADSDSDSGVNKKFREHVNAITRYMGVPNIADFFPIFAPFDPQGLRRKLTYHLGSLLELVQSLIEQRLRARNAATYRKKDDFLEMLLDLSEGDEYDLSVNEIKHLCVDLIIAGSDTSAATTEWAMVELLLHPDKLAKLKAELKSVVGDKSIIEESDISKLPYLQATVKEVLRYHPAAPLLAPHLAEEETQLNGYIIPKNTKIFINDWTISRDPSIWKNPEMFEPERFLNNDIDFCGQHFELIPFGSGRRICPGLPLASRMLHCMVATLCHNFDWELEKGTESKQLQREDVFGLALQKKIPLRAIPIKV
Test: product titre in engineered yeast cells, GC
Assay type: cell-based
Conditions: C-20 oxidation to pisiferic acid; co-expressed CYP76AH24(F112L), CPR2, Cytb5

CC(C)c1cc2c(cc1O)[C@@]1(C)CCCC(C)(C)[C@@H]1CC2 [ferruginol]
product titre in engineered yeast cells, GC: CYP76AH24(F112L) variant enabled the complete shift from carnosic acid to pisiferic acid production in yeast

From article PMC5562805, “Overcoming the plasticity of plant specialized metabolism for selective diterpene production in yeast” (Scientific Reports, 2017)
